The text below walks through data of ChEMBL document CHEMBL5465560, “Selectivity Literature for EUbOPEN Chemogenomic Library” (2024).

Assay [1] has as its target T1, Ephrin type-B receptor 2 (Homo sapiens) (UniProt P29323).
T1 sequence (whole entry): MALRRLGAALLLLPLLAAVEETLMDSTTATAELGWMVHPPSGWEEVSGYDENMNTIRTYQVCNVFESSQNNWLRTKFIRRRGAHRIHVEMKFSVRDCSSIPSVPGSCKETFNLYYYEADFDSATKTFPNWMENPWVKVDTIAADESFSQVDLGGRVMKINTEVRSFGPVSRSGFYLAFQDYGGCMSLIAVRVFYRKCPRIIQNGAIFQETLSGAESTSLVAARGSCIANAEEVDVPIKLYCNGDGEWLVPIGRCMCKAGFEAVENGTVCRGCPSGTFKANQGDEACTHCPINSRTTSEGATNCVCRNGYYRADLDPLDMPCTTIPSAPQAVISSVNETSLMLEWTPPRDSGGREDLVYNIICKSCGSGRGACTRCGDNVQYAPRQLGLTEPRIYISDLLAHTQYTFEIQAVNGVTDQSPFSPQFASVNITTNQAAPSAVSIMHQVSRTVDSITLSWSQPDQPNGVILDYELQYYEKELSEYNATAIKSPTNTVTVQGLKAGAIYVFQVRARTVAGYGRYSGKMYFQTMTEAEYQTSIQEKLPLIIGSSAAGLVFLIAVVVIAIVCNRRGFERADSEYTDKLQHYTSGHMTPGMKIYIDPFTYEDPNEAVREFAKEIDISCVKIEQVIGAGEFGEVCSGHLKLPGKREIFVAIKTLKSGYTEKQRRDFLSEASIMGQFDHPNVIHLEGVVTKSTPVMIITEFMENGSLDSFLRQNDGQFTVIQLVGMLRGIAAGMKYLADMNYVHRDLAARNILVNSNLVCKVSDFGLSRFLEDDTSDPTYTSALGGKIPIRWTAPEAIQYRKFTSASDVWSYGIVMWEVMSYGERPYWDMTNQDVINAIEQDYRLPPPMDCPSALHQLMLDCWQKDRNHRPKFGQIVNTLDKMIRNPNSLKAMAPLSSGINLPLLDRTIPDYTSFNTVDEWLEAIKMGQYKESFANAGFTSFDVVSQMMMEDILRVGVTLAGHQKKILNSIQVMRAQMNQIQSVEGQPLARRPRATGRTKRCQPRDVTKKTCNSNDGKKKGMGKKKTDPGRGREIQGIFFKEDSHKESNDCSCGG
The assay can be described thus: Selectivity interaction (KinomeScan (DiscoverX)) EUB0001079a EPHB2. The conditions noted are these: at 1 µM.

Assay [2] has as its target T2, SNF-related serine/threonine-protein kinase (Homo sapiens) (UniProt Q9NRH2).
T2 sequence (whole entry): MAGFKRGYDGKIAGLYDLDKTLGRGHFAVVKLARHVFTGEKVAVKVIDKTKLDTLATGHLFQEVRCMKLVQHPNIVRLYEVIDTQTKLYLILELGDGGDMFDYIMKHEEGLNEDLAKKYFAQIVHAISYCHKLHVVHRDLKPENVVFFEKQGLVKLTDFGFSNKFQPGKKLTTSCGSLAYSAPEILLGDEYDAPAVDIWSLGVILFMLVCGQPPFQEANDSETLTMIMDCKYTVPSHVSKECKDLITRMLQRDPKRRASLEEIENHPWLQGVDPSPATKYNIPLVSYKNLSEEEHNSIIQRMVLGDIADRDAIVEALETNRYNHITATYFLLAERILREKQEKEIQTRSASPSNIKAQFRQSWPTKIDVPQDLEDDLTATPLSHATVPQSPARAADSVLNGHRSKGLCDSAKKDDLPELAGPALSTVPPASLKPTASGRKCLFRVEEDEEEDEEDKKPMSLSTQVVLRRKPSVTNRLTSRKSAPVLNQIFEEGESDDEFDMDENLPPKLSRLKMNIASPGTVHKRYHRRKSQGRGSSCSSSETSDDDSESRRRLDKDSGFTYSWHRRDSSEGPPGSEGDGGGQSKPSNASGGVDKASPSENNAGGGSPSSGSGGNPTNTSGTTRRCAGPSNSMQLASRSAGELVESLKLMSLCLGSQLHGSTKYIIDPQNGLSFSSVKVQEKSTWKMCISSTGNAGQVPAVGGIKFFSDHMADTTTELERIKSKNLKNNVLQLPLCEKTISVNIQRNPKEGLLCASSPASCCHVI
As to the kind of experiment: Selectivity interaction (KinomeScan (DiscoverX)) EUB0000607a SNRK. The conditions noted are these: at 10 µM.

The target in assay [3] is Casein kinase I isoform gamma-2 (Homo sapiens) (UniProt P78368). As to the kind of experiment: Selectivity interaction (KinomeScan (DiscoverX)) EUB0001619a CSNK1G2. The conditions noted are these: at 1 µM.
Chain of Casein kinase I isoform gamma-2 (Homo sapiens) (P78368 whole entry, looked up, canonical isoform): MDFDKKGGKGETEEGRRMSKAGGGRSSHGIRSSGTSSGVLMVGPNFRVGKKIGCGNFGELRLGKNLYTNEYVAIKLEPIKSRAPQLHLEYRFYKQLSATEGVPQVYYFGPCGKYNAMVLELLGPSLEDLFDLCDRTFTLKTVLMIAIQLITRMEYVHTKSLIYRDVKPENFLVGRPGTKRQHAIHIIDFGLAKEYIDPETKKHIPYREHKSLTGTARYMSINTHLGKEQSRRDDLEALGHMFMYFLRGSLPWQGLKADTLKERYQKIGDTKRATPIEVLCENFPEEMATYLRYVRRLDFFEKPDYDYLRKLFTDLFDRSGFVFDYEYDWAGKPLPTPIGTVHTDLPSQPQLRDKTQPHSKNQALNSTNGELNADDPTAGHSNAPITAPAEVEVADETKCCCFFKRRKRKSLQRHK

In turn, `Nc1cnc(N2CCc3cc(S(=O)(=O)Nc4c(F)cc(Cl)cc4F)cc(N4CCCC4=O)c32)nc1` [TP-020n] gave a % of control in assay [1] of 87%.
The molecule `CNC(=O)Nc1ccc(-c2nc(N3CC4CCC(C3)O4)c3cnn(C4CCC5(CC4)OCCO5)c3n2)cc1` yielded a % of control in assay [2] of 100%.
Molecule `N#Cc1cccc(-c2c[nH]c3ncnc(N4CCOCC4)c23)c1` returned a % of control in assay [3] of 89%.
